In paper PMC9628870 (Journal of Microbiology and Biotechnology, 2022):

Target: T1, Burkholderia pseudomallei L-asparaginase (Burkholderia pseudomallei, UniProt Q63UZ6)
T1 construct: gene ansB
Conditions: 10 mM substrate, 50 mM Tris-HCl pH 8.6, 37 °C, 10 min

T1 sequence (Q63UZ6 1-347 limits assumed): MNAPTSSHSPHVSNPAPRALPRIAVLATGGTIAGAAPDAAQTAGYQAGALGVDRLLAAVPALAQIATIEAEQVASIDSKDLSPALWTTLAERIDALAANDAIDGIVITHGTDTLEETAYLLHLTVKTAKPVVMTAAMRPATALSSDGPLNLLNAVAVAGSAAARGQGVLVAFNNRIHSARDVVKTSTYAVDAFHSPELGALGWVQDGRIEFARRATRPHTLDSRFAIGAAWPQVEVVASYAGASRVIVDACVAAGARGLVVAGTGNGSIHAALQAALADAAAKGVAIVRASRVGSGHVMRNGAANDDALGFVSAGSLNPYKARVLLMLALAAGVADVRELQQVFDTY

SMILES: NC(=O)C[C@H](N)C(=O)O [L-asparagine]
- ammonia release by Nessler's reagent: the purified recombinant enzyme displayed the maximum activity and specificity towards the reaction substrate L-asparagine
